Laboratory results: publication PMC10017046 (Science Advances, 2023)

What was measured:
MTLR [1] = settings: cited from earlier work
[2] = cited from earlier work
GI motility = settings: cited from earlier work; for GI motility activity: [51]
MTLR L341A = MTLR L341A (Homo sapiens, UniProt O43193, L341A); assay: IP1 accumulation; format: cell-based; settings: MTLR-bearing alanine mutation of L341^7.39
MTLR [3] = settings: cited from earlier work; remark: listed apart in the source
MTLR [4] = settings: cited from earlier work; remark: listed apart in the source
[5] = test system: MTLR, substitution of E119^3.33 with aspartic acid; settings: E119^3.33 substituted with aspartic acid; ref [16]; cited from earlier work
gastroparesis = settings: ref [14], [15]; cited from earlier work
MTLR [6] = settings: camicinal; ref [51]; cited from earlier work

MTLR L341A, sequence (O43193 whole entry L341A): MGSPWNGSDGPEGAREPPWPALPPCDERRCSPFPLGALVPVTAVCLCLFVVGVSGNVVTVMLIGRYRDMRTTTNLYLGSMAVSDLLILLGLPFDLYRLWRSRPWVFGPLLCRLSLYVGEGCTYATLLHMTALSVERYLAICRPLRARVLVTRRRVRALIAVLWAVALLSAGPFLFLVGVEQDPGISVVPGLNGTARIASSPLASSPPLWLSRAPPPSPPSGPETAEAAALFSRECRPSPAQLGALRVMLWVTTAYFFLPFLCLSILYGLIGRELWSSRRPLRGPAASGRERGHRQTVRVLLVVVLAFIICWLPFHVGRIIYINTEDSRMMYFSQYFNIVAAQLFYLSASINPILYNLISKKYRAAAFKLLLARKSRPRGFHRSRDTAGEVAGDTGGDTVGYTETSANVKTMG

Question: For `CC[C@H]1OC(=O)[C@H](C)[C@@H](O[C@H]2C[C@@](C)(OC)[C@@H](O)[C@H](C)O2)[C@H](C)[C@@H](O[C@@H]2O[C@H](C)C[C@H](N(C)C(C)C)[C@H]2O)[C@@]2(C)CC(C)=C(O2)[C@H](C)C(=O)[C@]1(C)OC` [mitemcinal], which desensitization effect (MTLR [1]; ref [54]) is on record?
Answer: much more improved

Question: For atilmotin, which adverse effects ([2]; ref [50]) is on record?
Answer: not associated with any central nervous system–, respiratory system–, or cardiovascular system–related adverse effects

Question: For `CC[C@H]1OC(=O)[C@H](C)[C@@H](O[C@H]2C[C@@](C)(OC)C[C@H](C)O2)[C@H](C)[C@@H](O[C@@H]2O[C@H](C)C[C@H](N(C)CC)[C@H]2O)[C@@]2(C)CC(C)=C(O2)[C@H](C)[C@@H](O)[C@H]1C` [ABT-229], which desensitization-inducing effect (MTLR [1]; compared with motilin and erythromycin, ref [52], [53]) is on record?
Answer: more potent desensitization-inducing effect compared with motilin and erythromycin

Question: And the receptor internalization (MTLR [1]; ref [52], [53])?
Answer: relatively high ability to induce receptor internalization

Question: Which results are given for `CC[C@H]1OC(=O)[C@H](C)[C@@H](O[C@H]2C[C@@](C)(OC)[C@@H](O)[C@H](C)O2)[C@H](C)[C@@H](O[C@@H]2O[C@H](C)C[C@H](N(C)C)[C@H]2O)[C@](C)(O)C[C@@H](C)CN(C)[C@H](C)[C@@H](O)[C@]1(C)O` [azithromycin]?
Answer: GI motility activity (GI motility; ref [9]): mimic the GI motility activity of motilin; GI disturbances ([2]; long-term use, azithromycin, ref [4], [15]): often causes unexpected GI disturbances

Question: Which results are given for `CC[C@H]1OC(=O)[C@H](C)[C@@H](O[C@H]2C[C@@](C)(OC)[C@@H](O)[C@H](C)O2)[C@H](C)[C@@H](O[C@@H]2O[C@H](C)C[C@H](N(C)C)[C@H]2O)[C@](C)(O)C[C@@H](C)C(=O)[C@H](C)[C@@H](O)[C@]1(C)O` [erythromycin]?
Answer: erythromycin activity (in words) (MTLR L341A): markedly decreased erythromycin activities; weaker MTLR activation ability than motilin (MTLR [3]; erythromycin versus motilin, ref [4]): ~ 1000 -fold; MTLR agonism (MTLR [3]; ref [11]): agonist for MTLR; role of ECL2 regions of MTLR for erythromycin (MTLR [4]; ref [16], [35]): not critical for erythromycin; ligand activity [5]: marked decrease in ligand activity; GI contractile activity (GI motility; ref [9], [10]): mimic exogenous motilin in GI contractile activity; GI motility activity (GI motility; ref [9]): mimic the GI motility activity of motilin; effectiveness in gastroparesis (gastroparesis): effective treatment for gastroparesis

Question: With “motilin analog [1-12]: motilin analog [1-12] (FVPIFTYGELQR; Motilin; UniProt P12872 26-37, looked up, fragment)” as the molecule, how does the “fold increased binding affinity” value (MTLR [4]; motilin analog [1-12] compared with analog [1-11], ref [4]) read?
Answer: 158 -fold

Question: Which results are given for `C[C@H]1CN(Cc2ccc(CC(=O)N3CCC(Nc4cccc(F)c4)CC3)cc2)CCN1` [Camicinal, camicinal]?
Answer: oral effectiveness as MTLR agonist (MTLR [3]; ref [51]): orally effective MTLR agonist; gastric cholinergic activity (GI motility; ref [51]): long-lasting gastric cholinergic activity; receptor selectivity (MTLR [6]): high receptor selectivity
